Patent US20250025048A1, “Liver Viscoelastic Changes and Biomarkers for Cancer Invasion” (The Board of Trustees of the Leland Stanford Junior …, priority 2021, published 2025)

Legend:
[1] = tested on: livers from HiAD-fed mice; assay: Rheometry of livers (dynamic time sweep and stress relaxation test); type: in vivo; details: 600 s; for storage modulus (stiffness, G'): 2% constant strain, 1 radian/s, FIG. 3B; for faster relaxation times (high viscoelasticity) of HiAD livers, stress relaxation test: initial 10% strain, FIGS. 3C-3D
Experimental: FIGS. 3A-3D. […] The plate was lowered to touch the sample and 100˜300 Pa of initial force was applied. Dynamic time sweep test (2% constant strain, oscillation frequency 1 radian/s, measurements taken for 600 s) was done first to collect the shear storage modulus (stiffness, G′) and loss modulus (G″) (FIG. 3A). […] Stress relaxation test was performed for 600 s with an initial 10% strain. […] Stress was normalized by the initial stress (FIG. 3C). Quantification of timescale at which the stress is relaxed to half its original value (τ1/2), from the tests in FIG. 3C (FIG. 3D). (N=2-4, Data are represented as mean±SEM; one way ANOVA followed by post-hoc Tukey test *p<0.05, **p<0.01, ***p<0.001).
The plate was lowered to touch the sample and 100˜300 Pa of initial force was applied. Dynamic time sweep test (2% constant strain, oscillation frequency 1 radian/s, measurements taken for 600 s) was done first to collect the shear storage modulus (stiffness, G′) and loss modulus (G″) (FIG. 3A). […] A stress relaxation test was performed for 600 s with an initial 10% strain. […] Stress was normalized by the initial stress (FIG. 3C). Quantification of timescale at which the stress is relaxed to half its original value (τ1/2), from the tests in FIG. 3C (FIG. 3D). (N=2-4, Data are represented as mean±SEM; one way ANOVA followed by post-hoc Tukey test *p<0.05, **p<0.01, ***p<0.001).

[2] = tested on: livers from HiAD-fed mice; assay: Atomic force microscopy (AFM) indentation of livers, hysteresis between approach and retraction curves; type: in vivo; details: 60 mg/kg daily, i.p., FIG. 1B
Description: FIGS. 1A-1B. ECM viscoelasticity increases in an advanced glycation end product (AGE) and hepatocyte RAGE-dependent manner. Schematic presentation of the methods used to assess mechanical responses to indentation by an atomic force microscope (AFM) probe. Force-distance curve is generated when the probe indents the sample until a defined force is reached (blue, approach curve) and the cantilever is retracted (red, retraction curve). The hysteresis between the approach and retraction curves indicates sample viscosity (FIG. 1A).
As shown in FIGS. 1A-1B, extracellular matrix (ECM) viscoelasticity increases in an AGE and hepatocyte RAGE-dependent manner. Mechanical responses to indentation were assessed by an atomic force microscope (AFM) probe. A force-distance curve is generated when the probe indents the sample until a defined force is reached and the cantilever is retracted. The hysteresis between the approach and retraction curves indicates sample viscosity (FIG. 1A).

Row | SMILES | storage modulus (stiffness, G') [1] | faster relaxation times (high viscoelasticity) of HiAD livers, stress relaxation test [1] | hysteresis area between approach and retraction force curves (sample viscosity) [2]
1 | Cc1sc[n+](CC(=O)c2ccccc2)c1C.[Cl-] [alagebrium, 3-phenacyl-4,5-dimethylthiazolium chloride] | did not change | reversed | 
2 | Cc1ncc(CO)c(CN)c1O [PM, pyridoxamine] | did not change | reversed | reduced
